Experimental data published in patent US10632054B2, “Method for hair frizz reduction” (The Procter & Gamble Company, priority 2015, dated 2020).

How the values were obtained:
[1] = Expert rating of hair switches for frizz, clean feel and greasy feel; conditions: 1% in leave-on composition
Description: Additional leave-on treatment compositions are prepared (Tables 1 and 2) according to the procedure described above, which are used to treat hair switches using the procedure described above (amount of 0.10 g of composition per g of hair). The switch is kept at high humidity (above 85%) for 2 hours. Then, ten experts are asked to rate each hair switch in terms of frizz, clean feel, and greasy feel, based on a 5 point scale, 5 being the highest and 1 being the lowest rating. Acceptable values are:
For frizz, less than 2 (lower number corresponds to less frizz);
For no greasy feel less than 3, (lower number corresponds to less greasy feel), and
For clean feel greater than 3 (higher number corresponds to cleaner feel).

[2] = Soaking treatment, moisture uptake by DVS; conditions: pH 4.2, 40 deg C., at 90% RH
Description: The Moisture Control Material is added into a 50:50 ethanol:water solvent at a concentration of 2% w/w and mixed until completely dissolved. The solution pH is adjusted with sodium hydroxide (50% w/w) to a final pH of 4.2. The soaking solution is kept at 40 deg C. for 2 hrs. until a uniform composition is obtained.
One hair switch of natural virgin brown hair is placed in 200 ml of this solution for 2 hours in an oven set at 40° C. After the 2-hour period, the hair is removed, air dried and then tested for moisture uptake using DVS. For the control experiment, a natural brown virgin hair switch of the same weight is placed in a 50:50 ethanol:water solvent and treated under identical conditions.
The % water reduction is calculated as follows: […]
Hair soaked in active solution of pH 4.2 for different interval of time from 10 min to 2 hrs at 40 deg C. Hair Switches were air dried and prepared for % water reduction measurement using DVS vs. control (no active).

[3] = Leave-on treatment, % water reduction by DVS in damaged hair; conditions: 10% propylene glycol
Description: An amount of 25-30 mg of hair with length of approximately 1 cm is weighed and hold for equilibration at 0% RH for 16 hours. After the 16-hour period, the RH is increased to 10% and maintained at this level for 6 hours. Then, the RH is increased by 10% after every 6 hours interval until it reaches 90% RH. The % water reduction is calculated as follows:
A=Amount of water absorbed by the hair treated with composition containing the Moisture Control Material

## O=C(O)c1ccc(O)cc1O [2,4-Dihydroxybenzoic acid]
[1]
  Hair switch rating result in words (frizz, clean feel, greasy feel): provide frizz protection with clean feel and without greasy feel negative

## O=S(=O)(O)c1ccc(O)cc1 [4-Hydroxybenzenesulphonic acid]
[1]
  Hair switch rating result in words (frizz, clean feel, greasy feel): provide frizz protection with clean feel and without greasy feel negative

## O=C(O)c1ccccc1O [Salicylic acid]
[1]
  Hair switch rating result in words (frizz, clean feel, greasy feel): provide frizz protection with clean feel and without greasy feel negative

## CC(C)CCCCCCCCCCCCCCCOC(=O)CCCCCCCCCCCCCCC(C)C [Isostearyl isostearate]
[1]
  Hair switch rating result in words (frizz, clean feel, greasy feel): provide frizz protection with clean feel and without greasy feel negative

## CCCCCCCCC(CO)CCCCCC (stereo not shown) [2-Hexyl-1-decanol]
[1]
  Hair switch rating result in words (frizz, clean feel, greasy feel): provide frizz protection with clean feel and without greasy feel negative

## O=C(O)c1cc(Cl)ccc1O [5-Chlorosalicylic acid]
[2]; 10 min soaking
  % water reduction vs. control: 9.6%
[2]; 20 mins soaking
  % water reduction vs. control: 14.8%
[2]; 30 mins soaking
  % water reduction vs. control: 19%
[2]; 1 hr soaking
  % water reduction vs. control: 26%
[2]; 2 hr soaking
  % water reduction vs. control: 30%
[3]
  increase in % water reduction as measured by DVS versus without propylene glycol: ~4 times
[1]
  Hair switch rating result in words (frizz, clean feel, greasy feel): provide frizz protection with clean feel and without greasy feel negative

## O=C(OCCO)c1ccccc1O [2-Hydroxyethyl salicylate]
[1]
  Hair switch rating result in words (frizz, clean feel, greasy feel): provide frizz protection with clean feel and without greasy feel negative
